Measurements published in patent US20250275976A1, “Methods of Treating Neuroinflammatory Conditions” (Athira Pharma, Inc., priority 2022, published 2025).
Square brackets hold non-standard residues; d marks the D form. Peptide text beside a SMILES is read from it. * marks the point of attachment. Hexanoyl = CCCCCC(=O)*; Ahx = NCCCCCC(=O)O

Columns and labels:
[1] = tested on: Rat primary cortical neuron cultures; test: Neuroprotection of rat cortical neurons against LPS challenge (Cell Titer-Glo); conditions: for Protection of primary neurons from LPS-stimulated inflammatory toxicity (in words): at at least one dose tested; for Significance of neuroprotection vs 1 uM LPS: LPS 24 h
Procedure: To assess the neuroprotective effect of compound treatment against inflammatory insult, primary cultured cortical neurons were subjected to lipopolysaccharide (LPS) treatment for 24h along with various compound doses of compounds of Formula (I) or Compound A19. […] Rat primary cortical neuron cultures were grown at 37° C., 5% C02 in Complete Neurobasal Medium supplemented with B27/GDNF/BDNF containing 10% FBS until maturity. 25 μl of culture volume were seeded in a 384-well plate at 5,000 cells/well, and treated with 1 μM, 100 nM, 10 nM, 1 nM, or 0.1 nM of test compound for 15 minutes. Cells were then subjected to 1 μM LPS challenge for 24 hours. Luminescence measurements to assess relative levels of ATP were performed on an Envision plate reader (Perkin Elmer). Data for DMSO control were set to 100% cell viability, and each group (n=4) were averaged and presented as mean±SEM.

[2] = tested on: THP-1-differentiated macrophages; test: Pro-inflammatory cytokines in supernatants of LPS-challenged THP-1-differentiated macrophages; assay type: cell-based, human; parameters: key to Significant reduction in pro-inflammatory cytokine expression: IL-6 / Significant reduction in pro-inflammatory cytokine expression: TNF-α / Significant reduction in pro-inflammatory cytokine expression: IL-1β: “NS” indicates a non-significant reduction in the indicated cytokine; “+” indicates a p value <0.05 in Tukey post test; “++” indicates a p value <0.01 in Tukey post test; conditions: for Expression of IL-1β and TNF-α (result in words) / Expression of IL-6 (result in words): at at least one tested dose; for Significant reduction in pro-inflammatory cytokine expression: IL-1β / Significant reduction in pro-inflammatory cytokine expression: IL-6 / Significant reduction in pro-inflammatory cytokine expression: TNF-α: LPS 24 hrs
Source text: Neuroinflammation plays a crucial role in disease progression and is a complex phenomenon involving various cells that affect many extra- and intracellular signaling pathways and cytokine production. The macrophage of the brain (microglia) is the main agent of innate immunity in the CNS and performs various functions, including neuroprotection, in response to inflammatory signals. Activated microglia participate in developing neuroinflammation, responding to toxic exogenous substances (like LPS) or endogenous substances (like amyloid-beta). Here, THP-1 cells were used as an in-vitro cell model to evaluate mechanisms relevant to CNS inflammation. Differentiation with phorbol-12-myristate-13-acetate (PMA) causes THP-1 monocyte cells to acquire functional and morphological resemblance to macrophages. LPS interacts with THP-1 differentiated macrophage through the toll-like receptor 4, triggering the inflammatory response and stimulating pro-inflammatory cytokine release and eventually leading to cellular death. Test compounds were investigated for whether they have anti-inflammatory effects on LPS-challenged macrophage cultures. THP-1-differentiated macrophages were treated with test compounds for 20 minutes, followed by 24 hrs of LPS challenge. Culture supernatants were then collected to analyzed for the presence of pro-inflammatory cytokines: interleukin 1β (IL--1β), interleukin 6 (IL-6) and tumor necrosis factor α (TNF-α).
Cytokine quantification in cell culture supernatants was accomplished by homogeneous time resolved fluorescence (HTRF) kits to assess levels of IL-1β (Human IL-1β kit, #62HIL1BPEG, Cisbio) and IL-6 (Human IL-6 kit, 62HILO6PET, Cisbio), and by ELISA (Human TNF-α ELISA kit, KHC3011, ThermoFisher) to determine the levels of TNF-α.
Data analysis was performed via 1-way ANOVA with Tukey post-test compared to LPS treatment cultures using Prism statistical software (GraphPad). Tabular data indicates significance of reduction in culture supernatants for the indicated analyte at the indicated dose.

[3] = tested on: Rat primary cortical neuron cultures; test: Neuroprotection of rat primary cortical neurons against neurotoxic insults (Cell Titer-Glo viability); assay type: cell-based
Source text: HGF/MET signaling activation is expected to protect cells, including neurons, from cell death. […] Hydrogen peroxide (H2O2) treatment produces toxic oxidative stress. Bacteria-derived lipopolysaccharide (LPS) treatment induces inflammatory cell death. Treatment with excess glutamate (Glut) produces excitotoxicity in neuron cultures. Treatment with 1-methyl-4-phenylpyridinium (MPP^+) causes cell death by inhibition of mitochondrial function.
Cells were then subjected to individual conditional insults for 24 hours at the following concentrations: H2O2 at 1 uM, LPS at 1 uM, glutamate at 25 uM, or MPP+ at 500 uM. All treatments contained recombinant human HGF (R&D Systems) at a concentration of 5 ng/ml. MK-801 (Dizocilpine) is a pore blocker of the N-Methyl-D-aspartate (NMDA) receptor, a glutamate receptor, and was used as a positive control.
Data was normalized to DMSO+HGF control set at 100% cell viability.
Data are reported as statistical significance vs. insult control, with NS=not significant, +=p<0.05, ++=p<0.01, and +++=p<0.001.

## CCCCCC(=O)N[C@@H](Cc1ccc(O)cc1)C(=O)N[C@H](C(=O)NCCCCCC(N)=O)[C@@H](C)CC [Compound A19 active metabolite, dihexa] (Hexanoyl-Tyr-Ile-[Ahx]-NH2)
[1]
  Protection of primary neurons from LPS-stimulated inflammatory toxicity (in words): protected primary neurons from LPS-stimulated inflammatory toxicity
[1]; dose 0.1 nM
  Significance of neuroprotection vs 1 uM LPS: +++ (+++ indicates p<0.001)
[1]; dose 1 nM
  Significance of neuroprotection vs 1 uM LPS: ++ (++ indicates p<0.01)
[1]; dose 10 nM
  Significance of neuroprotection vs 1 uM LPS: +++ (+++ indicates p<0.001)
[1]; dose 100 nM
  Significance of neuroprotection vs 1 uM LPS: ++ (++ indicates p<0.01)
[1]; dose 1 μM
  Significance of neuroprotection vs 1 uM LPS: ++ (++ indicates p<0.01)
[2]
  Expression of IL-1β and TNF-α (result in words): significantly reduced
  Expression of IL-6 (result in words): significantly reduced
[2]; dose 0.1 nM
  Significant reduction in pro-inflammatory cytokine expression: IL-1β: NS
  Significant reduction in pro-inflammatory cytokine expression: IL-6: NS
  Significant reduction in pro-inflammatory cytokine expression: TNF-α: NS
[2]; dose 10 nM
  Significant reduction in pro-inflammatory cytokine expression: IL-1β: ++ (“++” indicates a p value <0.01 in Tukey post test)
  Significant reduction in pro-inflammatory cytokine expression: IL-6: + (“+” indicates a p value <0.05 in Tukey post test)
  Significant reduction in pro-inflammatory cytokine expression: TNF-α: + (“+” indicates a p value <0.05 in Tukey post test)
[2]; dose 1000 nM
  Significant reduction in pro-inflammatory cytokine expression: IL-1β: + (“+” indicates a p value <0.05 in Tukey post test)
  Significant reduction in pro-inflammatory cytokine expression: IL-6: ++ (“++” indicates a p value <0.01 in Tukey post test)
  Significant reduction in pro-inflammatory cytokine expression: TNF-α: ++ (“++” indicates a p value <0.01 in Tukey post test)
[3]; Glutamate (25 uM) insult, [Compound A19 active metabolite] 0.1 nM + HGF (5 ng/ml)
  Statistical significance vs. insult control (cell viability): + (+ = p < 0.05)
[3]; Glutamate (25 uM) insult, [Compound A19 active metabolite] 1 nM + HGF (5 ng/ml)
  Statistical significance vs. insult control (cell viability): ++ (++ = p < 0.01)
[3]; Glutamate (25 uM) insult, [Compound A19 active metabolite] 100 nM (second column headed 100 nM) + HGF (5 ng/ml)
  Statistical significance vs. insult control (cell viability): + (+ = p < 0.05)
[3]; Glutamate (25 uM) insult, [Compound A19 active metabolite] 100 nM + HGF (5 ng/ml)
  Statistical significance vs. insult control (cell viability): + (+ = p < 0.05)
[3]; H2O2 (1 uM) insult, [Compound A19 active metabolite] 0.1 nM + HGF (5 ng/ml)
  Statistical significance vs. insult control (cell viability): +++ (+++ = p < 0.001)
[3]; H2O2 (1 uM) insult, [Compound A19 active metabolite] 1 nM + HGF (5 ng/ml)
  Statistical significance vs. insult control (cell viability): +++ (+++ = p < 0.001)
[3]; H2O2 (1 uM) insult, [Compound A19 active metabolite] 100 nM (second column headed 100 nM) + HGF (5 ng/ml)
  Statistical significance vs. insult control (cell viability): +++ (+++ = p < 0.001)
[3]; H2O2 (1 uM) insult, [Compound A19 active metabolite] 100 nM + HGF (5 ng/ml)
  Statistical significance vs. insult control (cell viability): +++ (+++ = p < 0.001)
[3]; H2O2 (1 uM) insult, [Compound A19 active metabolite] 1 uM + HGF (5 ng/ml)
  Statistical significance vs. insult control (cell viability): +++ (+++ = p < 0.001)
[3]; H2O2, glutamate, LPS, MPP+, broad range of concentrations
  Neuroprotection against the cohort of insults (result in words): effective neuroprotective treatment at a broad range of concentrations against the entire cohort of insults tested
[3]; LPS (1 uM) insult, [Compound A19 active metabolite] 0.1 nM + HGF (5 ng/ml)
  Statistical significance vs. insult control (cell viability): ++ (++ = p < 0.01)
[3]; LPS (1 uM) insult, [Compound A19 active metabolite] 1 nM + HGF (5 ng/ml)
  Statistical significance vs. insult control (cell viability): ++ (++ = p < 0.01)
[3]; LPS (1 uM) insult, [Compound A19 active metabolite] 100 nM (second column headed 100 nM) + HGF (5 ng/ml)
  Statistical significance vs. insult control (cell viability): +++ (+++ = p < 0.001)
[3]; LPS (1 uM) insult, [Compound A19 active metabolite] 100 nM + HGF (5 ng/ml)
  Statistical significance vs. insult control (cell viability): ++ (++ = p < 0.01)
[3]; LPS (1 uM) insult, [Compound A19 active metabolite] 1 uM + HGF (5 ng/ml)
  Statistical significance vs. insult control (cell viability): ++ (++ = p < 0.01)
[3]; MPP+ (500 uM) insult, [Compound A19 active metabolite] 0.1 nM + HGF (5 ng/ml)
  Statistical significance vs. insult control (cell viability): +++ (+++ = p < 0.001)
[3]; MPP+ (500 uM) insult, [Compound A19 active metabolite] 1 nM + HGF (5 ng/ml)
  Statistical significance vs. insult control (cell viability): +++ (+++ = p < 0.001)
[3]; MPP+ (500 uM) insult, [Compound A19 active metabolite] 100 nM (second column headed 100 nM) + HGF (5 ng/ml)
  Statistical significance vs. insult control (cell viability): +++ (+++ = p < 0.001)
[3]; MPP+ (500 uM) insult, [Compound A19 active metabolite] 100 nM + HGF (5 ng/ml)
  Statistical significance vs. insult control (cell viability): +++ (+++ = p < 0.001)
[3]; MPP+ (500 uM) insult, [Compound A19 active metabolite] 1 uM + HGF (5 ng/ml)
  Statistical significance vs. insult control (cell viability): +++ (+++ = p < 0.001)

## CCC(C)CN1CC2N(Cc3ccc(C(F)(F)F)cc3)CCC(=O)N2[C@@H](C)C1=O (stereo partly shown) [Compound 5a]
[1]
  Protection of primary neurons from LPS-stimulated inflammatory toxicity (in words): protected primary neurons from LPS-stimulated inflammatory toxicity
[2]
  Expression of IL-1β and TNF-α (result in words): significantly reduced
  Expression of IL-6 (result in words): significantly reduced
[2]; dose 0.1 nM
  Significant reduction in pro-inflammatory cytokine expression: IL-1β: ++ (“++” indicates a p value <0.01 in Tukey post test)
  Significant reduction in pro-inflammatory cytokine expression: IL-6: NS
  Significant reduction in pro-inflammatory cytokine expression: TNF-α: NS
[2]; dose 10 nM
  Significant reduction in pro-inflammatory cytokine expression: IL-1β: ++ (“++” indicates a p value <0.01 in Tukey post test)
  Significant reduction in pro-inflammatory cytokine expression: IL-6: + (“+” indicates a p value <0.05 in Tukey post test)
  Significant reduction in pro-inflammatory cytokine expression: TNF-α: NS
[2]; dose 1000 nM
  Significant reduction in pro-inflammatory cytokine expression: IL-1β: ++ (“++” indicates a p value <0.01 in Tukey post test)
  Significant reduction in pro-inflammatory cytokine expression: IL-6: ++ (“++” indicates a p value <0.01 in Tukey post test)
  Significant reduction in pro-inflammatory cytokine expression: TNF-α: + (“+” indicates a p value <0.05 in Tukey post test)
